Source: patent US5055485A, “Inactivation of viruses in cell- and protein-containing compositions using aryl diol epoxides” (New York Blood Center, Inc., priority 1988, dated 1991)
≈ marks a conversion by molar mass, not a printed value. Like-named read-outs stand apart in the source and are kept apart here.

Key:
[1] = system: Vesicular stomatitis virus (VSV); type: cell-based
VSV [2] = type: cell-based, vesicular stomatitis virus
VSV [3] = assay: microbe, parasite or virus in culture; type: cell-based; conditions: Vesicular stomatitis virus, A549, read-out: virus kill (cell-associated VSV)
VSV [4] = assay: microbe, parasite or virus in culture; type: cell-based, vesicular stomatitis virus; conditions: for log reduction at 10 µM: Vesicular stomatitis virus, 6 h
Anti-HBsAg = assay: Plasma protein functional activity: Anti-HBsAg titer; type: biochemical; conditions: human plasma, 10 μm, 6 hours, 24° C.
Fibrinogen = assay: Plasma protein functional activity: fibrinogen clottability; type: biochemical; conditions: human plasma, 10 μm, 6 hours, 24° C.
AHF = assay: Plasma protein functional activity: AHF; type: biochemical; conditions: human plasma, 10 μm, 6 hours, 24° C.
Factor IX = assay: Plasma protein functional activity: Factor IX; type: biochemical; conditions: human plasma, 10 μm, 6 hours, 24° C.
Haptoglobin = assay: Plasma protein: haptoglobin; type: biochemical; conditions: human plasma, 10 μm, 6 hours, 24° C.
selected plasma proteins = assay: Functional activity of selected plasma proteins, overall; type: biochemical; conditions: human plasma, 10 μm, 6 hours, 24° C.
[5] = Solubility in aqueous media / water; type: physicochemical
[6] = Hydrolysis in aqueous medium; type: physicochemical; conditions: iscove's medium 10% fbs; Iscove's medium containing 10% fetal bovine serum
[7] = system: washed human red blood cells; assay: Red cell structural and functional integrity; conditions: conditions of Example 2
factor VIII = conditions: background art; cited from earlier work
[8] = system: proteinaceous components of the plasma; conditions: background art; cited from earlier work
[9] = background art; cited from earlier work
DNA = conditions: background art; cited from earlier work
viruses = conditions: background art; cited from earlier work

For `O[C@H]1[C@H]2O[C@H]2c2c(cc3ccc4cccc5ccc2c3c45)[C@@H]1O` (relative stereo) [BAPDE, trans-7,8-dihydroxy [anti] 9,10 epoxy-7,8,9,10-tetrahydro benzo[a]pyrene], the virus inactivated [1] was > 5 logs, the “VSV inactivation in the presence of red cells (in words)” value (VSV [2]) was “reduced in the presence of red cells” and the virus titer reduction (VSV [2]) was “at least 3 logs”. For the same molecule, the log reduction at 3 µM (VSV [3]) was > 5.5, the “VSV Infectivity following treatment with BAPDE” value (VSV [4]) was < -0.5 and the log reduction at 10 µM (VSV [4]; read-out: virus inactivation) was > 4.5. The log reduction at 10 µM (VSV [4]; read-out: VSV Infectivity change: log10 Kill) was > 4.6, the “Anti-HBsAg Recovery (%)” value (Anti-HBsAg) was 110% and the “Anti-HBsAg following treatment with BAPDE” value (Anti-HBsAg; no treatment 0.50) was 0.55 titer. For the same molecule, the “Fibrinogen clottability Recovery (%)” value (Fibrinogen) was 100%, the “Fibrinogen clottability following treatment with BAPDE” value (Fibrinogen; no treatment clottable) was “clottable” and the “AHF Recovery (%)” value (AHF) was 79%. For the same molecule, the “AHF following treatment with BAPDE” value (AHF; no treatment 0.70) was 0.55 units/ml, the “Factor IX Recovery (%)” value (Factor IX) was 100% and the “Factor IX following treatment with BAPDE” value (Factor IX; no treatment 0.9) was 0.9 units/ml. For the same molecule, the “Haptoglobin Recovery (%)” value (Haptoglobin) was 97%, the “Haptoglobin following treatment with BAPDE” value (Haptoglobin; no treatment 175) was 170 mg/dL and the “loss of protein functional activity (in words)” value (selected plasma proteins) was “without significant loss of protein functional activity”. For the same molecule, the solubility [5] was 1 to 10 µM (≈ 0.302 to 3.02 µg/mL), the half-life [6] was ~30 min and the “toxicity to A549 cells” value (A549 cells) was “Neither BAPDE nor the solvent in which it was dissolved (e.g., tetrahydroturan) were toxic to A549 cells”. The “2,3 diphosphoglycerate levels” value [7] was “within the normal range”, the ATP levels [7] was “within the normal range” and the “Red cell structural and functional integrity” value [7] was “not compromised”. For the same molecule, the hemoglobin content [7] was “within the normal range” and the osmotic fragility [7] was “within the normal range”.
In the case of `O=C1CCO1` [Beta-propiolactone, beta-propiolactone], the “loss of factor VIII content of plasma” value (factor VIII) is listed as “more than half of the factor VIII content of plasma is lost” and the “denaturation of plasma proteins” value [8] is listed as “substantially denaturate valuable plasma proteins”.
In the case of `CN(C)c1ccc2cc3ccc(N(C)C)cc3nc2c1` [acridine orange], the “water solubility (in words)” value [9] is given as “water soluble” and the “binding to DNA” value (DNA) is given as “bind extremely well to DNA”.
For `C=O` [formaldehyde], the “denaturation of plasma proteins” value [8] is given as “denatured the valuable proteinaceous components of the plasma”.
For `O=CCCCC=O` [glutaraldehyde], the “denaturation of plasma proteins” value [8] is given as “denatured the valuable proteinaceous components of the plasma” and the “viral inactivation and effect on cells (in words)” value (viruses) is given as “inactivates viral infectivity, but fixes cells”.
In the case of `Nc1ccc2cc3ccc(N)cc3nc2c1` [proflavin], the “water solubility (in words)” value [9] is given as “water soluble” and the “binding to DNA” value (DNA) is given as “bind extremely well to DNA”.
In the case of `OCl` [sodium hypochlorite], the “denaturation of plasma proteins” value [8] is listed as “denatured the valuable proteinaceous components of the plasma”.
